Assays:
[1] = Mucoadhesive properties of OMLA formulations (5 graded VAS scale); format: physicochemical; conditions: 0 = no, 4 = very pronounced mucoadhesive properties, fluid form
Experimental: Mucoadhesiveness (or bioadhesiveness) is given according to a 5 graded VAS scale, where 0 denotes no mucoadhesive properties and 4 very pronounced mucoadhesive properties.
Chemical and preformulation experiments were carried out in order to determine mucoadhesiveness of OMLA in gel or semisolid forms (see table below). The mucoadhesiveness for the OMLA judged for fluid, gel, patch, and vagitoria. Muco(Bio)adhesiveness is given according to a 5 graded VAS scale, where 0 denotes no mucoadhesive properties and 4 very pronounced mucoadhesive properties.

[2] = Comparison of in vitro release from lactic acid and OMLA 30 through a dialysis membrane; format: physicochemical
Experimental: 200 mg of LA or OMLA was placed in a dialysis bags. The bags were immersed in 50 ml of water (37° C.) and stirred in the same temperature for 48 hours. After 3, 6, 24 and 48 hours the acceptor liquid was removed and replaced with fresh water. The pH was measured at regular intervals. The liquid was titrated with 0.1 or 0.01 M KOH to measure how much LA equivalents are released. Then an excess of KOH was added and after 24 hours the solution was titrated with 0.1 or 0.01 HCl. […] The results are presented in FIG. 4A. pH was measured outside of the dialysis bags each hour between 1 to 10 and periodically up to 48 hours (FIG. 4B).

CC(O)C(=O)O (stereo not drawn) [LA, lactic acid]
Mucoadhesiveness, Fluid [1]: 0
release from the dialysis bag ([2]; 200 mg in dialysis bag, 50 ml water, 37° C.): immediately
ability to maintain constant acidic pH outside the dialysis bag ([2]; 50 ml water 37° C., replaced after 3, 6, 24, 48 h): not able to maintain acidic pH constant

Source: patent US8425894B2, “Use of oligomers of lactic acid in the treatment of gynaecological disorders” (priority 2007, dated 2013)
